Measurements from patent US20060166906A1, “6-O-substituted erythromycin derivatives having improved gastrointestinal tolerance” (priority 2001, published 2006).

Tested on: conscious ferrets
Experiment: Gastrointestinal tolerability study: nausea and emesis in conscious ferrets
Type: in vivo, ferret
Conditions: observed 90 minutes; for % Emesis: oral gavage 30 mg/kg in 2 mL ethanol and 4 mL water, vomiting ferrets / animals dosed; for Nausea Score: oral gavage 30 mg/kg, mean number of nausea behaviors (up to five) per animal
Description: Example 3 and three reference compounds were investigated for their ability to produce nausea and emesis in conscious ferrets using the method as described in Drugs, 53(2), 206-234 (1997) and Cancer Treat. Rep., 66(1), 187-189 (1982). Each compound was administered to 6 ferrets by oral gavage at 30 mg/kg in 2 mL of ethanol and 4 mL of water. […] Nausea was preceded by up to five of the following behaviors in the ferret: licking, down, flop, backing, and gag. […] The mean nausea score for a compound is the total number of nausea behaviors divided by the number of animals given the compound. Percent emesis is the total number of vomiting ferrets divided by the number of animals administered the compound.

| SMILES | % Emesis [%] | Nausea Score |
| --- | --- | --- |
| CC[C@H]1OC(=O)[C@H](C)[C@@H](O[C@H]2C[C@@](C)(OC)[C@@H](O)[C@H](C)O2)[C@H](C)[C@@H](O[C@@H]2O[C@H](C)C[C@H](N(C)C)[C@H]2O)[C@](C)(O)C[C@@H](C)C(=O)[C@H](C)[C@@H](O)[C@]1(C)O [Erythromycin] | 67 | 1.2 |
| CC[C@H]1OC(=O)[C@H](C)[C@@H](O[C@H]2C[C@@](C)(OC)[C@@H](O)[C@H](C)O2)[C@H](C)[C@@H](O[C@@H]2O[C@H](C)C[C@H](N(C)C)[C@H]2O)[C@](C)(OC)C[C@@H](C)C(=O)[C@H](C)[C@@H](O)[C@]1(C)O [Clarithromycin] | 83 | 1.4 |
| CC[C@H]1OC(=O)[C@H](C)C(=O)[C@H](C)[C@@H](O[C@@H]2O[C@H](C)C[C@H](N(C)C)[C@H]2O)[C@](C)(OC)C[C@@H](C)C(=O)[C@H](C)[C@H]2N(CCCCn3cnc(-c4cccnc4)c3)C(=O)O[C@]12C [Telithromycin] | 50 | 1.8 |
